Data taken from patent US20040023972A1, “Use of substituted imidazo[1,2-a]-pyridin-, -pyrimidin-and-pyrazin-3-yl-amine derivatives in the preparation of medicaments for inhibiting NOS” (Gruenenthal GmbH, priority 2000, published 2004).

Target: T1, NO synthase (Rattus norvegicus, UniProt P29476)
T1 construct: the supernatant was then removed by decantation and frozen in portions at −80° C; from tissue; host or cells: rat cerebellum, 20,000 g supernatant of homogenate
Test: HTS-NOS assay (NOS assay): conversion of radioactive arginine, cation-exchanger filter plate
Type: biochemical
Settings: 10 μM
Procedure, shortened: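 Rat cerebellum supernatant as NOS source, incubated with radiolabelled arginine plus cofactors including NADPH at 25 °C for 5-60 min depending on enzyme activity. Unconverted arginine was trapped on a cation-exchange filter plate, citrulline washed out, and bound arginine counted by scintillation; % inhibition versus no-compound reactions.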

Structure (SMILES) | HTS-NOS assay: % inhibition (10 μM) [%]
Cc1ccn2c(NC(C)(C)CC(C)(C)C)c(-c3ccc(CO)o3)nc2c1 [Example 102, {5-[7-Methyl-3-(1,1,33-tetramethyl-butylamino)-imidazo[1,2-a]pyridin-2-yl]-furan-2-yl}-methanol] | 59
CC(=O)OCc1ccc(-c2nc3cccc(C)n3c2N(C(C)=O)C2CCCCC2)o1 [Example 260, acetic acid 5-[3-(acetyl-cyclohexyl-amino)-5-methyl-imidazo[1,2-a]pyridin-2-yl]-furan-2-yl methyl ester] | 51
CC(=O)N(c1c(C)cccc1C)c1c(-c2ccccc2C(F)(F)F)nc2ccc(C)cn12 [Example 261, N-(2,6-dimethyl-phenyl)-N-[6-methyl-2-(2-trifluorO-methyl-phenyl)-imidazo[1,2-a]pyridin-3-yl]-acetamide] | 61
[C-]#[N+]CCCCCCN(C(C)=O)c1c(-c2ccccc2OC)nc2cc(C)ccn12 [Example 281, (6-{acetyl-[2-(2-methoxy-phenyl)-7-methyl-imidazo[1,2-a]pyridin-3-yl]-amino}-hexyl)-methylidyne-ammonium] | 62
C#[N+]CCCCCCNc1c(-c2ccco2)nc2cc(C)cc(C)n12 [Example 45, [6-(2-Furan-2-yl-5,7-dimethyl-imidazo[1,2-a]pyridin-3-ylamino)-hexyl]-methylidyne-ammonium] | 54
[C-]#[N+]CCCCCCNc1c(-c2ccccc2OC)nc2cc(C)cc(C)n12 [Example 61, {6-[2-(2-Methoxy-phenyl)-5,7-dimethyl-imidazo[1,2-a]pyridin-3-ylamino]-hexyl}-methylidyne-ammonium] | 73

Same assay, conditions: Table 5; concentration not given

Structure (SMILES) | NOS assay % inhibition [%]
Cc1cc(C)n2c(NC3CCCC3)c(-c3ccc(Br)cc3F)nc2c1.Cl [Example 304, [2-(4-Bromo-2-fluoro-phenyl)-5,7-dimethyl-imidazo[1,2-a]pyridin-3-yl]-cyclopentyl-amine hydrochloride] | 56

Same assay, conditions: read-out: HTS-NOS assay: % inhibition (10 μM)

Structure (SMILES) | inhibition at 10 µM [%]
Cc1cccn2c(NC(C)(C)CC(C)(C)C)c(-c3cccc(Cl)c3Cl)nc12 [Example 70, [2-(2,3-Dichlorophenyl)-8-methyl-imidazo[1,2-a]pyridin-3-yl]-(1,1,3,3-tetramethyl-butyl)-amine] | 52
Cc1ccn2c(NC(C)(C)C)c(-c3ccc(CO)o3)nc2c1 [Example 64, [5-(3-Tert-butylamino-7-methyl-imidazo[1,2-a]pyridin-2-yl)-furan-2-yl]-methanol] | 52
Cc1ccn2c(NC(C)(C)CC(C)(C)C)c(-c3ccc(Br)o3)nc2c1 [Example 86, [2-(5-Bromofuran-2-yl)-7-methyl-imidazo[1,2-a]pyridin-3-yl]-(1,1,3,3-tetramethyl-butyl)-amine] | 54
Cc1ccn2c(Nc3c(C)cccc3C)c(-c3cc4ccccc4o3)nc2c1 [Example 90, (2-benzofuran-2-yl-7-methyl-imidazo[1,2-a]-pyridin-3-yl)-(2,6-dimethyl-phenyl)-amine] | 53
CC(=O)N(c1c(-c2ccco2)nc2cc(C)cc(C)n12)C(C)(C)CC(C)(C)C [Example 143, N-(2-furan-2-yl-5,7-dimethyl-imidazo[1,2-a]pyridin-3-yl)-N-(1,1,3,3-tetramethylbutyl)-acetamide] | 68
CC(=O)N(c1c(-c2ccco2)nc2cc(C)cc(C)n12)C(C)(C)C [Example 145, N-tert-butyl-N-(2-furan-2-yl-5,7-dimethyl-imidazo[1,2-a]pyridin-3-yl)-acetamide] | 66
COc1cccc(-c2nc3c(C)cccn3c2NC(C)(C)CC(C)(C)C)c1OC [Example 117, [2-(2,3-Dimethoxy-phenyl)-8-methyl-imidazo[1,2-a]pyridin-3-yl]-(1,1,3,3-tetramethyl-butyl)-amine] | 52
Cc1cc(C)n2c(NC(C)(C)CC(C)(C)C)c(-c3cc4ccccc4o3)nc2c1 [Example 66, (2-Benzofuran-2-yl-5,7-dimethyl-imidazo[1,2-a]pyridin-3-yl)-(1,1,3,3-tetramethyl-butyl)-amine] | 53
Cc1ccn2c(NC3CCCCC3)c(-c3ccco3)nc2c1 [Example 141, Cyclohexyl-(2-furan-2-yl-7-methyl-imidazo[1,2-a]pyridin-3-yl)-amine] | 64
CC(=O)N(c1c(C)cccc1C)c1c(C(C)(C)C)nc2cc(C)ccn12 [Example 212, N-(2-tert-butyl-7-methyl-imidazo[1,2-a]pyridin-3-yl)-N-(2,6-dimethyl-phenyl)-acetamide] | 68
CC(=O)N(c1c(-c2cccc3ccccc23)nc2cc(C)ccn12)C(C)(C)C [Example 204, N-tert-butyl-N-(7-methyl-2-naphthalen-1-yl-imidazo[1,2-a]pyridin-3-yl)-acetamide] | 54
CC(C)(C)Nc1c(-c2ccc(C(=O)O)s2)nc2cnccn12 [Example 119, 5-(3-Tert-butylamino-imidazo[1,2-a]pyrazin-2-yl)-thiophene-2-carboxylic acid] | 56
Cc1cc(C)n2c(NC(C)(C)CC(C)(C)C)c(-c3ccncc3)nc2c1 [Example 3, (5,7-Dimethyl-2-pyridin-4-yl-imidazo[1,2-a]-pyridin-3-yl)-(1,1,3,3-tetramethyl-butyl)-amine] | 60
Cc1cc(C)n2c(Nc3c(C)cccc3C)c(-c3cccc(O)c3)nc2c1 [Example 129, 3-[3-(2,6-Dimethyl-phenylamino)-5,7-dimethyl-imidazo[1,2-a]pyridin-2-yl]-phenol] | 61
Cc1cc(C)n2c(Nc3c(C)cccc3C)c(-c3cc4ccccc4o3)nc2c1 [Example 57, (2-Benzofuran-2-yl-5,7-dimethyl-imidazo[1,2-a]pyridin-3-yl)-(2,6-dimethyl-phenyl)-amine] | 57
COC(=O)CN(C(C)=O)c1c(C)nc2cc(C)ccn12 [Example 174, [acetyl-(2,7-dimethyl-imidazo[1,2-a]pyridin-3-yl)-amino]-acetic acid methyl ester] | 68

Structure (SMILES) | inhibition at 10 µM [%]
Cc1cccc(C)c1Nc1c(-c2cccc(Cl)c2Cl)nc2c(C)cccn12 [Example 96, [2-(2,3-Dichlorophenyl)-8-methyl-imidazo[1,2-a]pyridin-3-yl]-(2,6-dimethyl-phenyl)-amine] | 55
CC(=O)N(c1c(-c2ccc(C(=O)O)o2)nc2cc(C)ccn12)C(C)(C)C [Example 201, 5-[3-(acetyl-tert-butyl-amino)-7-methyl-imidazo[1,2-a]pyridin-2-yl]-furan-2-carboxylic acid] | 54
CC(=O)N(c1c(-c2ccc(C(=O)O)s2)nc2cnccn12)C(C)(C)C [Example 153, 5-[3-(acetyl-tert-butyl-amino)-imidazo[1,2-a]pyrazin-2-yl]-thiophene-2-carboxylic acid] | 78
Cc1ccn2c(NC(C)(C)CC(C)(C)C)c(-c3ccc(C(=O)O)o3)nc2c1 [Example 81, 5-[7-Methyl-3-(1,1,3,3-tetramethyl-butylamino)-imidazo[1,2-a]pyridin-2-yl]-furan-2-carboxylic acid] | 60
CC(=O)N(c1c(-c2ccco2)nc2cc(C)cc(C)n12)C1CCCCC1 [Example 203, N-cyclohexyl-N-(2-furan-2-yl-5,7-dimethyl-imidazo[1,2-a]pyridin-3-yl)-acetamide] | 60
COc1cc(-c2nc3ncccn3c2N(C(C)=O)C2CCCCC2)ccc1OC(C)=O [Example 270, acetic acid 4-[3-(acetyl-cyclohexyl-amino)-imidazo[1,2-a]pyrimidin-2-yl]-2-methoxy-phenyl ester] | 52
CC(=O)N(c1c(-c2ccc(Cl)cc2Cl)nc2ncccn12)C1CCCCC1 [Example 275, N-cyclohexyl-N-[2-(2,4-dichloro-phenyl)-imidazo[1,2-a]pyrimidin-3-yl]-acetamide] | 59
CC(=O)N(c1c(-c2ccccn2)nc2cc(C)cc(C)n12)C1CCCCC1 [Example 259, N-cyclohexyl-N-(5,7-dimethyl-2-pyridin-2-yl-imidazo[1,2-a]pyridin-3-yl)-acetamide] | 73
CC(=O)N(c1c(-c2ccc(C3OCCO3)o2)nc2cc(C)ccn12)C(C)(C)C [Example 214, N-tert-butyl-N-[2-(5-[1,3]dioxolan-2-yl-furan-2-yl)-7-methyl-imidazo[1,2-a]-pyridin-3-yl]-acetamide] | 56
CC(=O)N(c1c(-c2sccc2Br)nc2ccccn12)C1CCCCC1 [Example 161, N-[2-(3-bromo-thiophen-2-yl)-imidazo[1,2-a]pyridin-3-yl]-N-cyclohexyl-acetamide] | 51
CC(=O)N(c1c(C)nc2cc(C)cc(C)n12)C(C)(C)C [Example 152, N-tert-butyl-N-(2,5,7-trimethyl-imidazo[1,2-a]pyridin-3-yl)-acetamide] | 66
Cc1cc(C)n2c(NC(C)(C)CC(C)(C)C)c(-c3cccc(O)c3)nc2c1 [Example 31, 3-[5,7-Dimethyl-3-(1,1,3,3-tetramethyl-butylamino)-imidazo[1,2-a]pyridin-2-yl]-phenol] | 60
COc1cc(-c2nc3nc(C)cc(C)n3c2N(C(C)=O)C2CCCCC2)ccc1OC(C)=O [Example 252, acetic acid 4-[3-(acetyl-cyclohexyl-amino)-5,7-dimethyl-imidazo[1,2-a]-pyrimidin-2-yl]-2-methoxy-phenyl ester] | 53
CC(=O)N(c1c(-c2cccs2)nc2c(Cl)cc(Cl)cn12)C(C)(C)C [Example 277, N-tert-butyl-N-(6,8-dichloro-2-thiophen-2-yl-imidazo[1,2-a]pyridin-3-yl)-acetamide] | 53
Cc1cc(C)n2c(NC(C)(C)C)c(C3CCCCC3)nc2c1 [Example 22, Tert-butyl-(2-cyclohexyl-5,7-dimethyl-imidazo[1,2-a]pyridin-3-yl)-amine] | 68
